Measurements published in PubChem BioAssay AID330 (DTP/NCI, 2004).
Inconclusive results and toxic doses are left out.

Test system: P388 leukemia ip, CD2F1 mice, survival T/C
Assay: NCI In Vivo Anticancer Drug Screen. Data for tumor model P388 Leukemia (intraperitoneal) in CD2F1 (CDF1) mice
Conditions: endpoint: median survival time, higher = longer survival
Outline: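 Mice carrying the transplanted tumor received test compound or vehicle. Survival was recorded in each group, and the value is the treated-group measurement divided by that of the vehicle-treated control group.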

[1] = dose: 50.0 mg/kg/injection, schedule: Q01DX009 (ip), vehicle: saline with Tween-80
[2] = dose: 100.0 mg/kg/injection, schedule: Q01DX009 (ip), vehicle: saline with Tween-80
[3] = dose: 200.0 mg/kg/injection, schedule: Q01DX009 (ip), vehicle: saline with Tween-80
[4] = dose: 50.0 mg/kg/injection, schedule: Q01DX009 (ip), vehicle: saline
[5] = dose: 100.0 mg/kg/injection, schedule: Q01DX009 (ip), vehicle: saline
[6] = dose: 200.0 mg/kg/injection, schedule: Q01DX009 (ip), vehicle: saline
[7] = dose: 60.0 mg/kg/injection, schedule: Q01DX005 (ip), vehicle: saline with Tween-80
[8] = dose: 120.0 mg/kg/injection, schedule: Q01DX005 (ip), vehicle: saline with Tween-80
[9] = dose: 240.0 mg/kg/injection, schedule: Q01DX005 (ip), vehicle: saline with Tween-80
[10] = dose: 50.0 mg/kg/injection, schedule: Q01DX005 (ip), vehicle: saline with Tween-80
[11] = dose: 100.0 mg/kg/injection, schedule: Q01DX005 (ip), vehicle: saline with Tween-80
[12] = dose: 200.0 mg/kg/injection, schedule: Q01DX005 (ip), vehicle: saline with Tween-80

CCOC(=O)c1ccc(N2C(C(=O)OCC)Nc3ccc(C(=O)OCC)cc3C2C(=O)OCC)cc1 (configuration not stated)
T/C (dose: 100.0 mg/kg/injection, schedule: Q04DX002 (ip), vehicle: Klucel (hydroxypropylcellulose) (HPC)): 97 % of control
T/C (dose: 200.0 mg/kg/injection, schedule: Q04DX002 (ip), vehicle: Klucel (hydroxypropylcellulose) (HPC)): 88 % of control

CC(C)N(CCO)CC(O)Cn1cnc2ncnc(N)c21 (configuration not stated)
T/C (dose: 60.0 mg/kg/injection, schedule: Q01DX005 (ip), vehicle: saline): 94 % of control
T/C (dose: 120.0 mg/kg/injection, schedule: Q01DX005 (ip), vehicle: saline): 97 % of control
T/C (dose: 240.0 mg/kg/injection, schedule: Q01DX005 (ip), vehicle: saline): 94 % of control

CC(C)C(C(=O)O)N(C(=O)CN)C(=O)Cc1ccccc1 (configuration not stated)
T/C [1]: 95 % of control
T/C [2]: 93 % of control
T/C [3]: 93 % of control

COc1ccc(C2NC(=O)NC2=O)cc1 (configuration not stated)
T/C (dose: 25.0 mg/kg/injection, schedule: Q01DX009 (ip), vehicle: saline with Tween-80): 100 % of control
T/C [1]: 91 % of control
T/C [2]: 93 % of control
T/C [3]: 94 % of control

CCCCCCCCCCCCCCNC(=O)C[N+](C)(C)Cc1ccccc1
T/C (dose: 0.25 mg/kg/injection, schedule: Q01DX009 (ip), vehicle: saline with Tween-80): 100 % of control
T/C (dose: 0.5 mg/kg/injection, schedule: Q01DX009 (ip), vehicle: saline with Tween-80): 100 % of control
T/C (dose: 1.0 mg/kg/injection, schedule: Q01DX009 (ip), vehicle: saline with Tween-80): 100 % of control

COc1ccc2c(c1)CSC(c1ccccc1)C2O (configuration not stated)
T/C [1]: 98 % of control
T/C [2]: 93 % of control
T/C [3]: 99 % of control

[Cl][Pt+2][Cl].[NH-]Cc1ccccc1[NH-]
T/C (dose: 6.25 mg/kg/injection, schedule: Q04DX002 (ip), vehicle: saline with Tween-80): 164 % of control
T/C (dose: 12.5 mg/kg/injection, schedule: Q04DX002 (ip), vehicle: saline with Tween-80): 164 % of control
T/C (dose: 25.0 mg/kg/injection, schedule: Q04DX002 (ip), vehicle: saline with Tween-80): 167 % of control

CC1(C)NC(=S)N(c2ccccc2C(=O)O)C2=C1CN(Cc1ccccc1)CC2
T/C [4]: 100 % of control
T/C [5]: 95 % of control
T/C [6]: 105 % of control

O=C(Nc1ccc(Cl)cc1)Nc1nnc2nc(C(C(=O)c3cccc([N+](=O)[O-])c3Cl)c3nc4nnc(NC(=O)Nc5ccc(Cl)cc5)n4[nH]c3=O)c(=O)[nH]n12
T/C [7]: 110 % of control
T/C [8]: 101 % of control
T/C [9]: 95 % of control

O=C(O)c1cc(C(=O)O)cc(N2C(=O)c3ccccc3C2=O)c1
T/C [4]: 100 % of control
T/C [5]: 87 % of control
T/C [6]: 89 % of control

[Se]=P(c1ccccc1)(c1ccccc1)N1CC1
T/C (dose: 12.5 mg/kg/injection, schedule: Q01DX001 (ip), vehicle: Klucel (hydroxypropylcellulose) (HPC)): 99 % of control
T/C (dose: 25.0 mg/kg/injection, schedule: Q01DX001 (ip), vehicle: Klucel (hydroxypropylcellulose) (HPC)): 104 % of control
T/C (dose: 50.0 mg/kg/injection, schedule: Q01DX001 (ip), vehicle: Klucel (hydroxypropylcellulose) (HPC)): 101 % of control

[CH2+][B-]1(C)n2cc(Br)c[n+]2[B-](C)(C)[n+]2cc(Br)cn21
T/C [7]: 102 % of control
T/C [8]: 103 % of control
T/C [9]: 103 % of control

Oc1ccc(N=Nc2c(-c3ccccc3)nn(C(=S)S)c2-c2ccccc2)cc1
T/C [10]: 103 % of control
T/C [11]: 102 % of control
T/C [12]: 101 % of control

Cn1c(=O)c2c(c3ccccc31)OC(C)(C)C=C2
T/C [10]: 100 % of control
T/C [11]: 100 % of control
T/C [12]: 105 % of control

CNC1C(O)C(NC)C2OC3(O)C(=O)CC(C)OC3OC2C1O (configuration not stated)
T/C (dose: 50.0 mg/kg/injection, schedule: Q04DX002 (ip), vehicle: saline with Tween-80): 101 % of control
T/C (dose: 100.0 mg/kg/injection, schedule: Q01DX005 (ip), vehicle: saline): 101 % of control
T/C (dose: 100.0 mg/kg/injection, schedule: Q04DX002 (ip), vehicle: saline with Tween-80): 101 % of control
T/C (dose: 200.0 mg/kg/injection, schedule: Q01DX005 (ip), vehicle: saline): 100 % of control
T/C (dose: 200.0 mg/kg/injection, schedule: Q04DX002 (ip), vehicle: saline with Tween-80): 98 % of control
